Molecules are shown by their SMILES. Like-named read-outs stand apart in the source and are kept apart here.

From US20150329558A1, “FUSED HETEROCYCLIC COMPOUNDS AS ION CHANNEL MODULATORS” (Gilead Sciences, Inc., priority 2011, published 2015) come the findings set out here.

Data set [1] is described as follows: Microsomal stability assay, human. It is filed as in vitro ADME. As to conditions: metabolic stability, human liver microsomes 0.5 mg/mL, substrate 3 uM. In short, it runs like this: (§1)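 Liver microsomes at 0.5 mg/mL protein in 100 mM KPO4 buffer, incubated with 3 uM compound and NADPH-regenerating system, run in duplicate. Samples taken at 2, 12, 25, 45 and 65 min and quenched in MeOH/ACN/water before analysis.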
A general note: Microsomes from liver hold many membrane-bound enzymes, among them those of drug oxidation.

Data set [2] in a line: Microsomal stability assay, rat. It counts as in vitro ADME. As to conditions: metabolic stability, rat liver microsomes 0.5 mg/mL, substrate 3 uM. Put shortly: as §1
In data set [3] the target is wild-type human cardiac sodium channel, hNav1.5 (late INa) (Homo sapiens, UniProt Q14524). Description: Late INa screening assay (QPatch whole cell patch clamp). It is filed as cell-based. In short, it runs like this:
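Compounds tested at 1 μM final in extracellular solution against tefluthrin (10 μM)-enhanced late current. Automated patch clamp (23-25° C) on HEK293 expressing alpha subunit alone: −120 mV holding, 250 ms depolarization to −20 mV every 10 s. Read-out is percent inhibition of mean current over 225–250 ms.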

The mark [4] stands for this setting: % inhibition at 1 μM, read-out: NAv1.5*-LATE-.
The mark [5] stands for this setting: percent block of late INa, compound at 1 μM, 10 μM Tefluthrin, HEK293 hNav1.5, read-out: Late INa 1 μM.

wild-type human cardiac sodium channel, hNav1.5 (late INa), sequence (Q14524 whole entry): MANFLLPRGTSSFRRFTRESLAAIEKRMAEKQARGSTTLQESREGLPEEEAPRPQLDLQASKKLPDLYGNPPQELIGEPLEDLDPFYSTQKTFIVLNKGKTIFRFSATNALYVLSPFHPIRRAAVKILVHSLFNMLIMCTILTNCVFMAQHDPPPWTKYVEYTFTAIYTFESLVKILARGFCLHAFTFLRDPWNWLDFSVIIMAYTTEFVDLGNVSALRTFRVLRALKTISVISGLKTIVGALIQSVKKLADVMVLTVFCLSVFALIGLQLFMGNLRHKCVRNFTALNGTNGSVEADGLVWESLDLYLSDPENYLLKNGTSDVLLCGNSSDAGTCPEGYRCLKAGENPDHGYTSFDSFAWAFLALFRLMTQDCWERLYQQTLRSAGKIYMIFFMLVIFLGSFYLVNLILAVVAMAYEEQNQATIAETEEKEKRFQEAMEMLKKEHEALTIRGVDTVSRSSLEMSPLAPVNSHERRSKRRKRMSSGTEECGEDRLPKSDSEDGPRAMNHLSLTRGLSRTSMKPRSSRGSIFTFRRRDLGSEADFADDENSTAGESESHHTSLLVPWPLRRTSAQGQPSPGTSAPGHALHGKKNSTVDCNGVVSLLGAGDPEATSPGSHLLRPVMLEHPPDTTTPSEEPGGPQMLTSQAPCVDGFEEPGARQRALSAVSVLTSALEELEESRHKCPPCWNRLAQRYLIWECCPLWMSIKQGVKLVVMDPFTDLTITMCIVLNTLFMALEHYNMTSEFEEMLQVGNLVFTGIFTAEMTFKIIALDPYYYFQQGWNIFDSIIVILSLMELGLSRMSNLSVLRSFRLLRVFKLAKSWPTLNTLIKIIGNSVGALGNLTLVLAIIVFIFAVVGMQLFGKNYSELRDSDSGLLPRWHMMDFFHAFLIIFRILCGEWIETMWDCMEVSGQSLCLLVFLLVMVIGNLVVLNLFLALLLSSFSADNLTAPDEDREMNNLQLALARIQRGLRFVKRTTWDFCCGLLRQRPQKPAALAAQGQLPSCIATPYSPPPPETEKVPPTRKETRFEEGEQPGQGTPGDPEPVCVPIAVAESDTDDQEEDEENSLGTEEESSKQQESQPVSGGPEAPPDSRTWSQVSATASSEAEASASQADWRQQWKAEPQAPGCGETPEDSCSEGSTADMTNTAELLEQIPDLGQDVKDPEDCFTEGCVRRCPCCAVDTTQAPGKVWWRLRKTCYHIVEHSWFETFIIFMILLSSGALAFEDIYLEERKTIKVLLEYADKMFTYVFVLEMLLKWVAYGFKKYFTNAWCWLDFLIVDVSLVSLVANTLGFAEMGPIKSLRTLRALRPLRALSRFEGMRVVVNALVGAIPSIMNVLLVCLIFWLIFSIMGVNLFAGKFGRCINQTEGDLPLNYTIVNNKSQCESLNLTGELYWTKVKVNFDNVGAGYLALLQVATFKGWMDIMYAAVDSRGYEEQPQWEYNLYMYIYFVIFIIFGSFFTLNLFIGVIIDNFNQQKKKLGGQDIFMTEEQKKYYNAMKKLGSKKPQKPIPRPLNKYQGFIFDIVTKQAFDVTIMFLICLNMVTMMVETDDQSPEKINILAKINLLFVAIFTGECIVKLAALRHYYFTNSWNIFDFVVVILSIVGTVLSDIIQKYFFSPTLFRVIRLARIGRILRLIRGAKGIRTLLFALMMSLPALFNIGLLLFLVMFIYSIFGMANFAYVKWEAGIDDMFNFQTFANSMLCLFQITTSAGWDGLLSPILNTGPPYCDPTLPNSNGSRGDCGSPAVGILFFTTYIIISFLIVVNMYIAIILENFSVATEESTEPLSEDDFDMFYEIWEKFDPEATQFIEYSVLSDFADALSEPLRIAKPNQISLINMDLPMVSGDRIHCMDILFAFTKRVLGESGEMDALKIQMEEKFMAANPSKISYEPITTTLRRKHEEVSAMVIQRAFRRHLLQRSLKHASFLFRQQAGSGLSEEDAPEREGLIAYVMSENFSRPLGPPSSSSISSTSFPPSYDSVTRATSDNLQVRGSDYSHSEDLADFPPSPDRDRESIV

For `Cc1noc(Cn2nnc3ccc(-c4ccc(OC(F)(F)F)cc4)cc3c2=O)n1` [II-3, 3-((3-methyl-1,2,4-oxadiazol-5-yl)methyl)-6-(4-(trifluoromethoxy)phenyl)benzo[d][1,2,3]triazin-4(3H)-one], the MS Human THalf in data set [1] amounted to 336 min. In addition, in data set [2], the MS Rat THalf came to 249 min. Moreover, the inhibition at 1 µM in data set [3] (setting [4]) and in data set [3] (setting [5]) was 53% each time.

In data set [1], `O=c1c2cc(-c3ccc(OC(F)(F)F)cc3)ccc2nnn1Cc1noc(C2CC2)n1` [II-14, 3-((5-cyclopropyl-1,2,4-oxadiazol-3-yl)methyl)-6-(4-(trifluoromethoxy)phenyl)benzo[d][1,2,3]triazin-4(3H)-one] gave an MS Human THalf of 236 min. Also, the MS Rat THalf in data set [2] was found to be 375 min. The inhibition at 1 µM in data set [3] (setting [4]) and in data set [3] (setting [5]) was 68% in each case.

Compound `O=c1c2cc(-c3ccc(OC(F)(F)F)cc3)ccc2nnn1CCc1ccncn1` [II-17, 3-(2-(pyrimidin-4-yl)ethyl)-6-(4-(trifluoromethoxy)phenyl)benzo[d][1,2,3]triazin-4(3H)-one] registered an MS Human THalf in data set [1] of 101 min. In data set [2], this compound gave an MS Rat THalf of 24 min. The inhibition at 1 µM in data set [3] (setting [4]) and in data set [3] (setting [5]) was 61% each time.

Consider `O=c1c2cc(-c3ccc(OC(F)(F)F)cc3)ccc2nnn1CCc1ncccn1` [II-18, 3-(2-(pyrimidin-2-yl)ethyl)-6-(4-(trifluoromethoxy)phenyl)benzo[d][1,2,3]triazin-4(3H)-one], for which, in data set [1], the MS Human THalf was found to be 130 min. Also, in data set [2], the MS Rat THalf was 49 min. In addition, the inhibition at 1 µM in data set [3] (setting [4]) and in data set [3] (setting [5]) was 66% in each case.

The compound `O=c1c2cc(-c3ccc(OC(F)(F)F)cc3)ccc2nnn1CCOc1ncccn1` [II-32, 3-(2-(pyrimidin-2-yloxy)ethyl)-6-(4-(trifluoromethoxy)phenyl)benzo[d][1,2,3]triazin-4(3H)-one] had an MS Human THalf in data set [1] of 392 min. Also, the MS Rat THalf in data set [2] was 237 min. The inhibition at 1 µM in data set [3] (setting [4]) and in data set [3] (setting [5]) was 64% in each case.

Turning to `N#Cc1ccnc(OCCn2nnc3ccc(-c4ccc(OC(F)(F)F)cc4)cc3c2=O)n1` [II-36, 2-(2-(4-oxo-6-(4-(trifluoromethoxy)phenyl)benzo[d][1,2,3]triazin-3(4H)-yl)ethoxy)pyrimidine-4-carbonitrile], in data set [1], the MS Human THalf came out at 157 min. Further, in data set [2], the MS Rat THalf turned out to be 108 min. The inhibition at 1 µM in data set [3] (setting [4]) and in data set [3] (setting [5]) was 43% in each case.

In the case of `O=c1c2cc(-c3ccc(OC(F)(F)F)cc3)ccc2nnn1C1CCNCC1` [II-38, 3-(piperidin-4-yl)-6-(4-(trifluoromethoxy)phenyl)benzo[d][1,2,3]triazin-4(3H)-one], in data set [1], the MS Human THalf is greater than 395 min. The compound also had an MS Rat THalf in data set [2] of 298 min. The inhibition at 1 µM in data set [3] (setting [4]) and in data set [3] (setting [5]) was 33% in each case.

Consider `O=c1c2cc(-c3ccc(OC(F)(F)F)cc3)ccc2nnn1CC1(CN2CCOCC2)CC1` [II-40, 3-((1-(morpholinomethyl)cyclopropyl)methyl)-6-(4-(trifluoromethoxy)phenyl)benzo[d][1,2,3]triazin-4(3H)-one], for which the MS Human THalf in data set [1] stood at 2 min. In data set [2], this compound yielded an MS Rat THalf of 2 min. Besides, the inhibition at 1 µM in data set [3] (setting [4]) and in data set [3] (setting [5]) was 48% each time.

In data set [1], `O=c1c2cc(-c3ccc(OC(F)(F)F)cc3)ccc2nnn1Cc1noc(-c2ccccn2)n1` [II-54, 3-((5-(pyridin-2-yl)-1,2,4-oxadiazol-3-yl)methyl)-6-(4-(trifluoromethoxy)phenyl)benzo[d][1,2,3]triazin-4(3H)-one] had an MS Human THalf of 329 min. Further, the MS Rat THalf in data set [2] amounted to 176 min. For the same compound, the inhibition at 1 µM in data set [3] (setting [4]) and in data set [3] (setting [5]) was 52% throughout.

On to `O=c1c2cc(-c3ccc(OC(F)(F)F)cc3)ccc2nnn1Cc1nnc(C2CC2)o1` [II-67, 3-((5-cyclopropyl-1,3,4-oxadiazol-2-yl)methyl)-6-(4-(trifluoromethoxy)phenyl)benzo[d][1,2,3]triazin-4(3H)-one], for which the MS Human THalf in data set [1] is greater than 395 min. Besides, the MS Rat THalf in data set [2] was greater than 395 min. The inhibition at 1 µM in data set [3] (setting [4]) and in data set [3] (setting [5]) was 47% in each case.

The compound `Cc1ncc(Cn2nnc3ccc(-c4ccc(OC(F)(F)F)cc4)cc3c2=O)o1` [II-95, 3-((2-methyloxazol-5-yl)methyl)-6-(4-(trifluoromethoxy)phenyl)benzo[d][1,2,3]triazin-4(3H)-one] came in with an MS Human THalf in data set [1] of 280 min. The same compound showed an MS Rat THalf in data set [2] of 121 min. The inhibition at 1 µM in data set [3] (setting [4]) and in data set [3] (setting [5]) was 36% in each case.

Turning to `O=c1c2cc(-c3ccc(OC(F)(F)F)cc3)ccc2cnn1Cc1ncccn1` [III-5, 2-(pyrimidin-2-ylmethyl)-7-(4-(trifluoromethoxy)phenyl)phthalazin-1(2H)-one], the MS Human THalf in data set [1] is 30 min. The compound also returned an MS Rat THalf in data set [2] of 56 min. Also, the inhibition at 1 µM in data set [3] (setting [4]) and in data set [3] (setting [5]) was 44% throughout.

In turn, `O=c1c2cc(-c3ccc(OC(F)(F)F)cc3)ccc2cnn1CCn1cccn1` [III-9, 2-(2-(1H-pyrazol-1-yl)ethyl)-7-(4-(trifluoromethoxy)phenyl)phthalazin-1(2H)-one] yielded an MS Human THalf in data set [1] of 100 min. In data set [2], this compound gave an MS Rat THalf of 81 min. The inhibition at 1 µM in data set [3] (setting [4]) and in data set [3] (setting [5]) was 57% each time.

Compound `COc1cc(OC)nc(Cn2ncc3ccc(-c4ccc(OC(F)(F)F)cc4)cc3c2=O)n1` [III-19, 2-((4,6-dimethoxypyrimidin-2-yl)methyl)-7-(4-(trifluoromethoxy)phenyl)phthalazin-1 (2H)-one] came in with an MS Human THalf in data set [1] of 130 min. For the same compound, the MS Rat THalf in data set [2] is 72 min. For the same compound, the inhibition at 1 µM in data set [3] (setting [4]) and in data set [3] (setting [5]) was 56% throughout.

As for `O=c1c2cc(-c3ccc(OC(F)(F)F)cc3)ccc2cnn1CCOc1ncccn1` [III-28, 2-(2-(pyrimidin-2-yloxy)ethyl)-7-(4-(trifluoromethoxy)phenyl)phthalazin-1 (2H)-one], the MS Human THalf in data set [1] was found to be 170 min. For the same compound, the MS Rat THalf in data set [2] was 103 min. Also, the inhibition at 1 µM in data set [3] (setting [4]) and in data set [3] (setting [5]) was 75% each time.

Turning to `Cc1noc(Cn2cnc3ccc(-c4ccc(OC(F)(F)F)cc4)cc3c2=O)n1` [IV-6, 3-((3-methyl-1,2,4-oxadiazol-5-yl)methyl)-6-(4-(trifluoromethoxy)phenyl)quinazolin-4(3H)-one], the MS Human THalf in data set [1] stood at 280 min. Besides, the MS Rat THalf in data set [2] was 190 min. Also, the inhibition at 1 µM in data set [3] (setting [4]) and in data set [3] (setting [5]) was 49% each time.

The compound `Cc1nc(Cn2cnc3ccc(-c4ccc(OC(F)(F)F)cc4)cc3c2=O)no1` [IV-9, 3-((5-methyl-1,2,4-oxadiazol-3-yl)methyl)-6-(4-(trifluoromethoxy)phenyl)quinazolin-4(3H)-one] came in with an MS Human THalf in data set [1] greater than 395 min. The compound also gave an MS Rat THalf in data set [2] of 243 min. The inhibition at 1 µM in data set [3] (setting [4]) and in data set [3] (setting [5]) was 42% throughout.

The compound `O=C1c2cc(-c3ccc(OC(F)(F)F)cc3)ccc2CCN1Cc1ncccn1` [IX-1, 2-(pyrimidin-2-ylmethyl)-7-(4-(trifluoromethoxy)phenyl)-3,4-dihydroisoquinolin-1(2H)-one] registered an MS Human THalf in data set [1] greater than 395 min. Further, the MS Rat THalf in data set [2] came to 150 min. Further, the inhibition at 1 µM in data set [3] (setting [4]) and in data set [3] (setting [5]) was 32% throughout.

In turn, `O=C1c2cc(-c3ccc(C(F)(F)F)cc3)ccc2CCN1Cc1ncccn1` [IX-3, 2-(pyrimidin-2-ylmethyl)-7-(4-(trifluoromethyl)phenyl)-3,4-dihydroisoquinolin-1(2H)-one] displayed an MS Human THalf in data set [1] of 304 min. In data set [2], this compound came in with an MS Rat THalf of 355 min. Moreover, the inhibition at 1 µM in data set [3] (setting [4]) and in data set [3] (setting [5]) was 29% throughout.

The compound `O=C(c1ncccn1)N1CCc2ccc(-c3ccc(C(F)(F)F)cc3)cc2C1` [IX-7, pyrimidin-2-yl(7-(4-(trifluoromethyl)phenyl)-3,4-dihydroisoquinolin-2(1H)-yl)methanone] yielded an MS Human THalf in data set [1] greater than 395 min. This compound yielded an MS Rat THalf in data set [2] greater than 395 min. The inhibition at 1 µM in data set [3] (setting [4]) and in data set [3] (setting [5]) was 46% each time.

As for `O=C(c1cccnn1)N1CCc2ccc(-c3ccc(C(F)(F)F)cc3)cc2C1` [IX-17, Pyridazin-3-yl(7-(4-(trifluoromethyl)phenyl)-3,4-dihydroisoquinolin-2 (1H)-yl) methanone], the MS Human THalf in data set [1] was 257 min. This compound also displayed an MS Rat THalf in data set [2] of 302 min. The inhibition at 1 µM in data set [3] (setting [4]) and in data set [3] (setting [5]) was 39% throughout.

Compound `Cn1cnc(C(=O)N2CCc3ccc(-c4ccc(C(F)(F)F)cc4)cc3C2)c1` [IX-39, (1-methyl-1H-imidazol-4-yl)(7-(4-(trifluoromethyl)phenyl)-3,4-dihydroisoquinolin-2(1H)-yl)methanone] had an MS Human THalf in data set [1] greater than 395 min. Besides, the MS Rat THalf in data set [2] amounted to 281 min. In addition, the inhibition at 1 µM in data set [3] (setting [4]) and in data set [3] (setting [5]) was 30% throughout.

With `O=C1c2cc(-c3ccc(OC(F)(F)F)cc3)ccc2OCN1Cc1ncccn1` [VIII-20, 3-(pyrimidin-2-ylmethyl)-6-(4-(trifluoromethoxy)phenyl)-2H-benzo[e][1,3]oxazin-4(3H)-one], the inhibition at 1 µM in data set [3] (setting [4]) and in data set [3] (setting [5]) was 62% throughout.
